# The source made the active and inactive calls. The rule behind the calls is not given here.
# How the values were obtained:
# [1] = molecular target: Nucleotide-binding oligomerization domain-containing protein 2 (Homo sapiens) (UniProt Q9HC29); experiment: Agonist activity at NOD2 in HEK-Blue hNOD2 cells assessed as increase in SEAP activity at 20 ug incubated for 24 hrs by Quanti-blue assay; format: cell-based; details: filed as agonist, dose 20.0 µg
# Peritoneal macrophage [2] = experiment: Immunostimulatory activity in BALB/c mouse peritoneal macrophages assessed as increase in TNF-aplha production at 20 ug incubated for 48 hrs by sandwich ELISA method; format: functional, cell-based; details: dose 20.0 µg
# Peritoneal macrophage [3] = experiment: Cytotoxicity against BALB/c mouse peritoneal macrophages assessed as reduction in cell viability at 20 ug incubated for 48 hrs by MTT assay; format: toxicity, cell-based; details: dose 20 µg
# [4] = Induction of dengue virus antigen-induced immunogenicity in BALB/c mouse assessed as fold change in IgG production treated at 10 ug and booster dosed on 14th day measured after 28 days by ELISA method; format: functional; details: dose 10 µg; time 28 day
# [5] = Induction of dengue virus antigen-induced immunogenicity in BALB/c mouse assessed as fold change in IgG production treated at 20 ug and booster dosed on 14th day measured after 28 days by ELISA method; format: functional; details: dose 20 µg; time 28 day
# Mus musculus [6] = experiment: Induction of dengue virus antigen-induced immunogenicity in BALB/c mouse assessed as […] associated IgG2a production in sera treated at 10 to 30 ug and booster dosed on 14th day measured after 28 days by ELISA method; format: functional, organism-based; details: dose 10-30 µg, time 28.0 day
# Splenocyte [7] = experiment: Induction of dengue virus antigen-induced immunogenicity in BALB/c mouse assessed as increase in CD4+ production in Splenocyte treated at 1 to 30 ug and booster dosed on 14th day measured after 28 days by ELISA method; format: functional, organism-based; details: dose 1-30 µg, time 28.0 day
# Mus musculus [8] = experiment: Induction of dengue virus antigen-induced immunogenicity in BALB/c mouse assessed as decrease in IFNgamma level booster dosed on 14th day and measured on day 28 after 48 hrs restimulation with antigen by ELISA method; format: functional, organism-based; details: dose 10-30 µM, time 28.0 day, DDE = dose-dependent effect
# Mus musculus [9] = experiment: Induction of dengue virus antigen-induced immunogenicity in BALB/c mouse assessed as increase in IL-1beta level treated at 10 to 20 ug and booster dosed on 14th day and measured on day 28 after 48 hrs restimulation with antigen by ELISA method; format: functional, organism-based; details: dose 10-20 µg, time 28.0 day
# Splenocyte [10] = experiment: Induction of dengue virus antigen-induced immunogenicity in BALB/c mouse assessed as increase in CD8+ production in splenocyte treated at 20 ug and booster dosed on 14th day measured after 28 days by ELISA method; format: functional, organism-based; details: dose 20.0 µg, time 28.0 day
# Splenocyte [11] = experiment: Induction of dengue virus antigen-induced immunogenicity in BALB/c mouse assessed as increase in CD8+ production in Splenocyte treated at 1 to 30 ug and booster dosed on 14 th day measured after 28 days by ELISA method; format: functional, organism-based; details: dose 1-30 µg, time 28.0 day
# Splenocyte [12] = experiment: Induction of LPS-stimulated mouse splenocyte proliferation assessed as increase in B cell population incubated for 48 hrs by MTT assay; format: functional, cell-based; details: dose 10-20 µg, DDE = dose-dependent effect
# Mus musculus [13] = experiment: Induction of dengue virus antigen-induced immunogenicity in BALB/c mouse assessed as increase in IL-2 level booster dosed on 14th day and measured on day 28 after 48 hrs restimulation with antigen by ELISA method; format: functional, organism-based; details: dose 10-30 µg, time 28.0 day, DDE = dose-dependent effect
# Splenocyte [14] = experiment: Induction of Con A-stimulated mouse splenocyte proliferation assessed as increase in T cell population incubated for 48 hrs by MTT assay; format: functional, cell-based; details: dose 10-20 µg, DDE = dose-dependent effect
# Splenocyte [15] = experiment: Induction of dengue virus antigen-induced immunogenicity in BALB/c mouse assessed as increase in CD4+ production in Splenocyte treated at 20 ug and booster dosed on 14th day measured after 28 days by ELISA method; format: functional, organism-based; details: dose 20.0 µg, time 28.0 day
# Mus musculus [16] = experiment: Induction of dengue virus antigen-induced immunogenicity in BALB/c mouse assessed as increase in IL-4 level booster dosed on 14th day and measured on day 28 after 48 hrs restimulation with antigen by ELISA method; format: functional, organism-based; details: dose 10-30 µg, time 28.0 day, DDE = dose-dependent effect
# Nucleotide-binding oligomerization domain-containing protein 2 (Homo sapiens), sequence (Q9HC29 whole entry, the tested form may be a part): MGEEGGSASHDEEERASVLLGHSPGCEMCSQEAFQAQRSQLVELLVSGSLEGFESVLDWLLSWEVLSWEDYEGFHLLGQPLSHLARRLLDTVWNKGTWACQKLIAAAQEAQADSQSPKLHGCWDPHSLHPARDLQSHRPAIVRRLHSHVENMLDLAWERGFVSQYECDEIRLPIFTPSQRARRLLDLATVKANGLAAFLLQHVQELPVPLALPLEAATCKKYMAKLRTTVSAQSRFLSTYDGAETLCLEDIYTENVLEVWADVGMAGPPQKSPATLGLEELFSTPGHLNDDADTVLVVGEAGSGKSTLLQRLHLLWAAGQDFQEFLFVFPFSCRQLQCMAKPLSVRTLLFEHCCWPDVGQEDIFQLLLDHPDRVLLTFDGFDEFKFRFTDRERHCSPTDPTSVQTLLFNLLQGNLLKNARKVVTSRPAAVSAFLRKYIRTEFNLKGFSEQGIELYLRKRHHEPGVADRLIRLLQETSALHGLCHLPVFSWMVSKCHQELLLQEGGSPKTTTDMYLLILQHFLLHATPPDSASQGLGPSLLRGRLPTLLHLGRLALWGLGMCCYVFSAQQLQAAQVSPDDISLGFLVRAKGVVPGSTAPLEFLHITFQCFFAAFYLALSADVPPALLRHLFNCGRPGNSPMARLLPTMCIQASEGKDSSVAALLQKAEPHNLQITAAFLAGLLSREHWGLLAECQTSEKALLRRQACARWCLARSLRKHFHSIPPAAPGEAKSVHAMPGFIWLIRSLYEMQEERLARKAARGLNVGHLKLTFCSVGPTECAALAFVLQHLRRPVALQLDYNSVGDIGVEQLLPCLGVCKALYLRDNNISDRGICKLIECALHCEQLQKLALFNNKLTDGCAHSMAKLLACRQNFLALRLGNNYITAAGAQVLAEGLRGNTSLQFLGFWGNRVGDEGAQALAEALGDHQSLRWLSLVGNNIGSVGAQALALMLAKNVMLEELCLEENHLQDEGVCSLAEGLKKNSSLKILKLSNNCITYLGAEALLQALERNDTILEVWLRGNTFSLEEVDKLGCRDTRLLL
Structure (SMILES),Activity [1],Activity (Peritoneal macrophage [2]),Activity (Peritoneal macrophage [3]),fold change (FC) [4],fold change (FC) [5],other results
C[C@H](NC(=O)[C@@H](C)O[C@H]1[C@H](O)[C@@H](CO)O[C@H](OCc2ccccc2)[C@@H]1N=[N+]=[N-])C(=O)N[C@H](CCC(=O)O)C(N)=O,Active,Active,Non-Toxic,–,–,–
C[C@H](NC(=O)[C@@H](C)O[C@@H]1[C@@H](N=[N+]=[N-])[C@@H](OCc2ccccc2)O[C@@H]2CO[C@@H](c3ccccc3)O[C@@H]12)C(=O)N[C@H](CCC(=O)OCc1ccccc1)C(N)=O,Active,Active,Non-Toxic,–,–,–
CCCCCCCCCCCCCCOC(=O)CC[C@@H](NC(=O)[C@H](C)NC(=O)[C@@H](C)O[C@H]1[C@H](O)[C@@H](CO)O[C@H](OCc2ccccc2)[C@@H]1N=[N+]=[N-])C(N)=O,Active,Active,Non-Toxic,–,–,–
CCCCCCCCOC(=O)CC[C@@H](NC(=O)[C@H](C)NC(=O)[C@@H](C)O[C@H]1[C@H](O)[C@@H](CO)O[C@H](OCc2ccccc2)[C@@H]1N=[N+]=[N-])C(N)=O,Active,Active,Non-Toxic,–,–,–
CC(=O)N[C@H]1C(O)O[C@H](CO)[C@@H](O)[C@@H]1O[C@H](C)C(=O)N[C@@H](C)C(=O)N[C@H](CCC(=O)O)C(N)=O (stereo partly drawn) [MURAMYL DIPEPTIDE],Active,Active,Non-Toxic,5,5,–
C[C@H](NC(=O)[C@@H](C)O[C@H]1[C@H](O)[C@@H](CO)O[C@H](OCc2ccccc2)[C@@H]1N=[N+]=[N-])C(=O)N[C@H](CCC(=O)OCc1ccccc1)C(N)=O,Active,Active,Non-Toxic,8,10,Activity (Mus musculus [6]): Active; Activity (Splenocyte [7]): Active; Activity (Mus musculus [8]): Dde; Activity (Mus musculus [9]): Active; Activity (Splenocyte [10]): Active; Activity (Splenocyte [11]): Active; Activity (Splenocyte [12]): Dde; Activity (Mus musculus [13]): Dde; Activity (Splenocyte [14]): Dde; Activity (Splenocyte [15]): Active; Activity (Mus musculus [16]): Dde
